The values that follow come from US20260103465A1, “GLYCOGEN SYNTHASE KINASE 3 INHIBITORS AND USES THEREOF” (The Broad Institute, Inc., priority 2023, published 2026).

Where two headings read alike, the source gives them in different places. A value given as a limit tells only on which side of the number the result lay.

Data set [1] concerns the target T1, GSK3a (GST-full length GSK3a) (Homo sapiens, UniProt P49840).
T1 construct: GST-full length GSK3a [SignalChem G08-10G]; purchased SignalChem G08-10G
In words: GSK3a TR-FRET kinase inhibition assay. The format is biochemical. In a few lines:
(§1)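 GST-tagged full-length human kinase (1 nM), pre-incubated 30 min with compound, then reacted 100 min at ambient temperature at pH 7.5 with 200 nM biotinylated phospho-S645 glycogen synthase 631–650 peptide and ATP at 2 μM–1 mM. After EDTA quench, Tb-pSer641 antibody/streptavidin-d2 TR-FRET 665/615 ratio fitted for IC50.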
For orientation: Time-resolved FRET reads energy transfer from a long-lived donor to a nearby acceptor.

The target in data set [2] is T2, GSK3b (GST-full length GSK3b) (Homo sapiens, UniProt P49841).
T2 construct: GST-full length GSK3b: [SignalChem G08-9G]; purchased SignalChem G08-9G
T2 sequence (P49841 whole entry): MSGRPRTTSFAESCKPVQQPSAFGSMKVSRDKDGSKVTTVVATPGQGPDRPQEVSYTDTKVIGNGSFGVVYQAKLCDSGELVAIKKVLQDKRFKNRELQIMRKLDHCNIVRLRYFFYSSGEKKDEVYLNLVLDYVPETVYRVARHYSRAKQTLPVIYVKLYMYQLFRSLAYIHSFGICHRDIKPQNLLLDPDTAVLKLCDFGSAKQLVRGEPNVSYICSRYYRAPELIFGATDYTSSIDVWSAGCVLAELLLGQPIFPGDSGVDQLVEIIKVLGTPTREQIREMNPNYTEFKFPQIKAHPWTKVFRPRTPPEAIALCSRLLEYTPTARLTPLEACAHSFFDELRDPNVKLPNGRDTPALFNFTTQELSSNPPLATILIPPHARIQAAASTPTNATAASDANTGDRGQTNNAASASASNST
In words: GSK3b TR-FRET kinase inhibition assay. The format is biochemical. The procedure, abridged:
as §1

Data set [3] relates to MDR1-MDCK cell monolayers. The data set is described as follows: MDR1/MDCK permeability assay. The format is in vitro ADME. Particulars: Table 3. An excerpt:
The MDR1/MDCK assay is run at WuXi and Absorption Systems. This assay is used to determine the blood-brain barrier (BBB) penetration potential of a test compound using MDR1-MDCK cell monolayers. Catalog number EA203.
• The percent recovery of the test compound from the Transwell® wells containing MDR1-MDCK cell monolayers • The apparent permeability (Papp) in both directions • The efflux ratio (Papp B to A)/(Papp A to B) • The blood-brain barrier penetration potential classification: • High when • Papp A to B≥3.0×10^−6 cm/s, and efflux<3.0 • Moderate when • Papp A to B≥3.0×10^−6 cm/s, and 10>efflux≥3.0 • Low when either • Papp A to B≥3.0×10^−6 cm/s, and […], or when • Papp A to B<[…].
• Test compound at 5 μM in HBSSg with maximum DMSO concentration not greater than 1%.
• Confluent monolayers of MDR1-MDCK cells, 7 to 11 days old.
• Receiver well with 1% BSA in modified Hanks buffer (HBSSg) • Apical and basolateral side at pH 7.4 • Dose two monolayers in each direction (N=2) • Dose apical side for (A to B) assessment • Dose basolateral side for (B to A) assessment • Sample both apical and basolateral sides at 120 minutes • Determine the concentrations of test compound using a generic LC-MS/MS method with a minimum 4 point calibration curve.
• The quality of the cell monolayer batch is verified using control compounds before monolayers are released for use • The quality of each monolayer used in the assay is verified by a TEER measurement and by calculating the Papp for a control compound.

The mark [4] stands for this setting: 4 μM ATP, read-out: GSK3α TR-FRET 4 μM ATP GMean IC50.
[5] abbreviates: 2 μM ATP, read-out: GSK3β TR-FRET 2 μM ATP GMean IC50.

T1 sequence (P49840 whole entry): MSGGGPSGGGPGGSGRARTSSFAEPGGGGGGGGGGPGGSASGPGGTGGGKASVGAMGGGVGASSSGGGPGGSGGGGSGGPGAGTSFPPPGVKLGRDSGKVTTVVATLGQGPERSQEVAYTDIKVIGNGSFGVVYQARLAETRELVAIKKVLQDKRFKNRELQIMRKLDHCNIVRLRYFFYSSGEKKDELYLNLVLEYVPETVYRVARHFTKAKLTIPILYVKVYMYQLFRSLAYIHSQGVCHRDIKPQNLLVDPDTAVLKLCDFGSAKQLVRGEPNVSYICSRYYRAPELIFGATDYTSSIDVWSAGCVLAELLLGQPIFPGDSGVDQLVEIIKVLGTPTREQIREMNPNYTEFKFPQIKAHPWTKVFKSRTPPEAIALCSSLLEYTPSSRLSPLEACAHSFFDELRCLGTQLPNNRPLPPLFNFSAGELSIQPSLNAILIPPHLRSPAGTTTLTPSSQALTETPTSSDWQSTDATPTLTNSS

For orientation: IC50 means the point on the concentration scale where inhibition reaches its midpoint. Consider `CC1(C)CC(=O)C2=C(C1)Nc1nccc(C#N)c1C2(C)c1ccccc1` (single isomer, unassigned) [Compound 108A], for which the IC50 lay in the range of 100 to 1000 nM in data set [1] (1 mM ATP, Table 3, read-out: GSK3a TR-FRET 1 mM ATP Average IC50) and 0.1 to 1 µM in data set [2] (1 mM ATP, Table 3, read-out: GSK3b TR-FRET 1 mM ATP Average IC50). The “MDCK Permeability (MDR1-MDCK); Mean; Papp(A-B) (10^−6 cm/s)” value in data set [3] (A to B) is listed as 18 10^−6 cm/s. Besides, the “MDCK Permeability (MDR1-MDCK); Mean; Papp(B-A) (10^−6 cm/s)” value in data set [3] (B to A) was 56 10^−6 cm/s. Also, in data set [3] (Papp B-A/A-B), the “MIDCK Permeability (MDR1-MDCK); Mean; P. Ratio(B-A/A-B) Efflux Ratio” value came out at 3.2.

As for `CCC1(c2ccccc2)C2=C(CC(C)(C)NC2=O)Nc2ncccc21` (single isomer, unassigned) [Compound 1002B], the half-maximal inhibitory concentration (IC50) in data set [1] (setting [4]) was in the range of 1000 to 5000 nM; in data set [2] (setting [5]), 1 to 5 µM.

With `CCC1(c2ccccc2)C2=C(Nc3ncccc31)C(F)C(C)(C)CC2=O` (single isomer, unassigned) [Compound 1006A], the IC50 in data set [1] (setting [4]) was more than 5000 nM; in data set [2] (setting [5]), more than 5 µM.

As for `CCC1(c2ccccc2)C2=C(Nc3ncccc31)C(F)C(C)(C)CC2=O` (single isomer, unassigned) [Compound 1006B], the 50% inhibitory concentration (IC50) is more than 5000 nM in data set [1] (setting [4]) and more than 5 µM in data set [2] (setting [5]).

As to `CCC1(c2ccccc2)C2=C(CC(C)(C)NC2=O)Nc2ncc(F)cc21` (single isomer, unassigned) [Compound 1007A], the IC50 was more than 5000 nM in data set [1] (setting [4]) and more than 5 µM in data set [2] (setting [5]).

On to `CCC1(c2cccc(C(C)C)c2)C2=C(CC(C)(C)CC2=O)Nc2ncccc21` (single isomer, unassigned) [Compound 1011A], for which the concentration for half-maximal inhibition (IC50) in data set [1] (setting [4]) was more than 5000 nM; in data set [2] (setting [5]) it was more than 5 µM.

For the compound `CCC1(c2cccc(C(F)(F)F)c2)C2=C(CC(C)(C)CC2=O)Nc2ncccc21` (single isomer, unassigned) [Compound 1014A], the IC50 in data set [1] (setting [4]) is 1000 to 5000 nM; in data set [2] (setting [5]), more than 5 µM.

As to `CCC1(c2cccc(C(F)(F)F)c2)C2=C(CC(C)(C)CC2=O)Nc2ncccc21` (single isomer, unassigned) [Compound 1014B], the IC50 in data set [1] (setting [4]) is not above 100 nM; in data set [2] (setting [5]) it was 0.1 to 1 µM.

Turning to `CCC1(c2cccc(-c3cccnc3)c2)C2=C(CC(C)(C)CC2=O)Nc2ncccc21` (single isomer, unassigned) [Compound 1015B], the IC50 is 1000 to 5000 nM in data set [1] (setting [4]) and more than 5 µM in data set [2] (setting [5]).

Regarding `CCC1(c2cccc(-c3ccccn3)c2)C2=C(CC(C)(C)CC2=O)Nc2ncccc21` (single isomer, unassigned) [Compound 1016B], the IC50 in data set [1] (setting [4]) was 1000 to 5000 nM; in data set [2] (setting [5]) it was more than 5 µM.

On to `CCC1(c2cccc(-c3ccncc3)c2)C2=C(CC(C)(C)CC2=O)Nc2ncccc21` (single isomer, unassigned) [Compound 1017B], for which the figures for the concentration for half-maximal inhibition (IC50) in data set [1] (setting [4]) and in data set [2] (setting [5]) were more than 5000 nM and more than 5 µM, respectively.

Take `CCC1(c2cccc(-c3cnn(C)c3)c2)C2=C(CC(C)(C)CC2=O)Nc2ncccc21` (single isomer, unassigned) [Compound 1018A]: the values for the half-maximal inhibitory concentration (IC50) in data set [1] (setting [4]) and in data set [2] (setting [5]) were more than 5000 nM and more than 5 µM, respectively.

`CCC1(c2cccc(-c3cnn(C)c3)c2)C2=C(CC(C)(C)CC2=O)Nc2ncccc21` (single isomer, unassigned) [Compound 1018B]: the IC50 in data set [1] (setting [4]) was not above 100 nM; in data set [2] (setting [5]) it was not above 0.1 µM.

`CCC1(c2cccc(-c3ccnn3C)c2)C2=C(CC(C)(C)CC2=O)Nc2ncccc21` (single isomer, unassigned) [Compound 1019B]: the IC50 was more than 5000 nM in data set [1] (setting [4]) and more than 5 µM in data set [2] (setting [5]).

Consider `CCC1(c2cccc(-c3ccncc3C)c2)C2=C(CC(C)(C)CC2=O)Nc2ncccc21` (single isomer, unassigned) [Compound 1020A], for which the IC50 was 1000 to 5000 nM in data set [1] (setting [4]) and more than 5 µM in data set [2] (setting [5]).

`CCC1(c2cccc(-c3ccnc(C)c3)c2)C2=C(CC(C)(C)CC2=O)Nc2ncccc21` (single isomer, unassigned) [Compound 1021A]: the IC50 in data set [1] (setting [4]) was more than 5000 nM; in data set [2] (setting [5]), more than 5 µM.

Regarding `CCC1(c2cccc(-c3ccnc(C)c3)c2)C2=C(CC(C)(C)CC2=O)Nc2ncccc21` (single isomer, unassigned) [Compound 1021B], the concentration for half-maximal inhibition (IC50) in data set [1] (setting [4]) is 100 to 1000 nM; in data set [2] (setting [5]), 0.1 to 1 µM.

Take `CCC1(c2cccc(-c3cnnc(C)c3)c2)C2=C(CC(C)(C)CC2=O)Nc2ncccc21` (single isomer, unassigned) [Compound 1022A]: the IC50 in data set [1] (setting [4]) is 100 to 1000 nM; in data set [2] (setting [5]), 0.1 to 1 µM.

For `CCC1(c2cccc(-c3cnnc(C)c3)c2)C2=C(CC(C)(C)CC2=O)Nc2ncccc21` (single isomer, unassigned) [Compound 1022B], the IC50 in data set [1] (setting [4]) is more than 5000 nM; in data set [2] (setting [5]), more than 5 µM.

Take `CCC1(c2cccc(-c3cn(C)nc3C)c2)C2=C(CC(C)(C)CC2=O)Nc2ncccc21` (single isomer, unassigned) [Compound 1023B]: the IC50 in data set [1] (setting [4]) was 100 to 1000 nM; in data set [2] (setting [5]), 1 to 5 µM.

On to `CCC1(c2cccc(-c3cc(C)nn3C)c2)C2=C(CC(C)(C)CC2=O)Nc2ncccc21` (single isomer, unassigned) [Compound 1024A], for which the half-inhibitory concentration (IC50) in data set [1] (setting [4]) was 1000 to 5000 nM; in data set [2] (setting [5]), more than 5 µM.

For `CCC1(c2cccc(-c3ccnn3C)c2)C2=C(CC(C)(C)CC2=O)Nc2ncc(F)cc21` (single isomer, unassigned) [Compound 1025B], the IC50 is 100 to 1000 nM in data set [1] (setting [4]) and more than 5 µM in data set [2] (setting [5]).

In the case of `CCC1(c2cccc(-c3cc(C)ncc3C)c2)C2=C(CC(C)(C)CC2=O)Nc2ncccc21` (single isomer, unassigned) [Compound 1027A], the 50% inhibitory concentration (IC50) in data set [1] (setting [4]) is more than 5000 nM; in data set [2] (setting [5]) it was more than 5 µM.

For `CCC1(c2cccc(-c3ccncc3OC)c2)C2=C(CC(C)(C)CC2=O)Nc2ncccc21` (single isomer, unassigned) [Compound 1028A], the 50% inhibitory concentration (IC50) was 1000 to 5000 nM in data set [1] (setting [4]) and more than 5 µM in data set [2] (setting [5]).

On to `CCC1(c2cccc(-c3ccncc3OC)c2)C2=C(CC(C)(C)CC2=O)Nc2ncccc21` (single isomer, unassigned) [Compound 1028B], for which the IC50 in data set [1] (setting [4]) was not above 100 nM; in data set [2] (setting [5]), not above 0.1 µM.

As for `CCC1(c2cccc(-c3ccncc3C)c2)C2=C(CC(C)(C)CC2=O)Nc2ncc(F)cc21` (single isomer, unassigned) [Compound 1031A], the IC50 in data set [1] (setting [4]) was in the range of 100 to 1000 nM; in data set [2] (setting [5]), 0.1 to 1 µM.

Turning to `CCC1(c2cccc(-c3cn(C)nc3C)c2)C2=C(CC(C)(C)CC2=O)Nc2ncc(F)cc21` (single isomer, unassigned) [Compound 1032A], the 50% inhibitory concentration (IC50) in data set [1] (setting [4]) is not above 100 nM; in data set [2] (setting [5]), 0.1 to 1 µM.

For `CCC1(c2cccc(-c3cc(C)nn3C)c2)C2=C(CC(C)(C)CC2=O)Nc2ncc(F)cc21` (single isomer, unassigned) [Compound 1033A], the half-inhibitory concentration (IC50) is 1000 to 5000 nM in data set [1] (setting [4]) and more than 5 µM in data set [2] (setting [5]).

On to `CCC1(c2cccc(-c3cc(C)nn3C)c2)C2=C(CC(C)(C)CC2=O)Nc2ncc(F)cc21` (single isomer, unassigned) [Compound 1033B], for which the IC50 was not above 100 nM in data set [1] (setting [4]) and not above 0.1 µM in data set [2] (setting [5]).

With `CCC1(c2cccc(-c3ccnc4c3CCC4)c2)C2=C(CC(C)(C)CC2=O)Nc2ncccc21` (single isomer, unassigned) [Compound 1034A], the half-maximal inhibitory concentration (IC50) in data set [1] (setting [4]) was more than 5000 nM; in data set [2] (setting [5]), more than 5 µM.

Regarding `CCC1(c2cccc(-c3ccnc(C)c3C)c2)C2=C(CC(C)(C)CC2=O)Nc2ncc(F)cc21` (single isomer, unassigned) [Compound 1035A], the half-maximal inhibitory concentration (IC50) in data set [1] (setting [4]) was 1000 to 5000 nM; in data set [2] (setting [5]) it was 1 to 5 µM.

Consider `CCC1(c2cccc(-c3ccnc(C)c3C)c2)C2=C(CC(C)(C)CC2=O)Nc2ncc(F)cc21` (single isomer, unassigned) [Compound 1035B], for which the 50% inhibitory concentration (IC50) in data set [1] (setting [4]) fell in the range of 1000 to 5000 nM; in data set [2] (setting [5]), 1 to 5 µM.

`CCC1(c2cccc(-c3ccncc3OC)c2)C2=C(CC(C)(C)CC2=O)Nc2ncc(F)cc21` (single isomer, unassigned) [Compound 1037A]: the IC50 in data set [1] (setting [4]) fell in the range of 1000 to 5000 nM; in data set [2] (setting [5]) it was 1 to 5 µM.

For the compound `CCC1(c2cccc(-c3ccnc4c3CCCC4)c2)C2=C(CC(C)(C)CC2=O)Nc2ncccc21` (single isomer, unassigned) [Compound 1039A], the concentration for half-maximal inhibition (IC50) in data set [1] (setting [4]) lay in the range of 100 to 1000 nM; in data set [2] (setting [5]), 0.1 to 1 µM.

On to `CC1(C)CC(=O)C2=C(C1)Nc1ncccc1C2c1ccccc1` (stereo not shown) [Compound C1, reference compound], for which the IC50 was more than 5000 nM in data set [1] (setting [4]) and more than 5 µM in data set [2] (setting [5]).
